# Data published in patent US20160184459A1, “CANCER CELL SPECIFIC IMAGING PROBES AND METHODS OF USE” (THE RESEARCH FOUNDATION FOR THE STATE UNIVERSITY OF NEW YORK, priority 2013, published 2016).
# Tests used:
# RPMI8226 cells = experiment: Live single cell detection by FACS, cell surface Puro; type: cell-based; settings: 20 μg/ml, 16 hr, anti-puro antibody (12D10) Alexa 647, FACS
# Protocol: Cell surface detection of Puro by anti-puro antibody (12D10) conjugated to Alexa 647 (EMD Millipore). RPMI8226 cells were treated with Puro (0.25 μg/ml) or Boc-KAc-Puro (20 μg/ml) for 16 hr then harvested by centrifugation followed by two times wash using cold washing solution (0.1% BSA in PBS). Cells were resuspended in the same solution and incubated 30 min on ice with Alexa 647 conjugated mouse IgG2a anti-puromycin antibody (12D10). Cells were washed twice with the solution followed by FACS analysis (BD FACSCalibur). The specificity of the antibody was confirmed by using isotype control antibody (mouse IgG2a conjugated with Alexa 647).
# [1] = tested on: prostate cancer cells (PC-3, DU-145 and LNCaP); experiment: Cell viability assay, prostate cancer cells; type: cell-based; settings: dose-response, MTS
# Protocol: FIG. 19. Selective cytotoxicity by BKAc-Puro on prostate cancer cells. Prostate cancer (PC-3, DU-145, and LNCaP), colon cancer (HCT116 as a positive control sensitive to the drug), and normal colon (CCD841-CoN as a negative control) cells were grown and analyzed as in FIG. 13. BKAc-Puro can effectively cause cell death on prostate cancer cells.
# (§1) Cell number was determined by cell counting using improved Neubauer hemacytometer. Cell viability was calculated as the number of viable cells divided by the total number of cells using Trypan Blue Stain (Invitrogen) to distinguish non-viable cells. Data were obtained from duplicated samples with quadruplicate measurements. MTS based cell viability assay was performed using CellTiter 96 Aqueous Cell Proliferation Assay (Promega) according to the manufacturer's instruction. […] After additional 2-3 h incubation, the absorbance of the formazan at 490 nm was measured by the microplate reader. […] Determination of non-viable cells using PI staining was performed by adding 1 μg/ml of PI solution (Sigma) to the cell culture, prior to the examination under fluorescence microscopy (Axiovert 3, Carl Zeiss) through a×32 objective equipped with a digital imaging processor (Infinity 3, Lumenera).
# [2] = tested on: malignant colon cancer cells with high HDAC and CTSL activity; experiment: Cell counting, trypan blue exclusion and PI staining, malignant colon cancer cell lines; type: cell-based, human; settings: 54 μM
# Protocol: FIG. 9. The colon cancer cell lines were grown for 5 d either with vehicle control DMSO (gray symbols) or 54 μM BKAc-Puro (red and blue symbols), and cell number was determined at the indicated time points.
# FIG. 10. The cell lines were grown as in FIG. 8, cell viability was determined by trypan blue at the indicated time points, and is presented as the percentage of live cells treated with vehicle control (gray symbols) or BKAc-Puro (red and blue symbols).
# FIG. 11. The cell lines were grown as in FIG. 8, and dead cells were determined after 80 h by PI signal under fluorescent microscope. BF, bright field. PI, fluorescent PI channel.
# as §1, with “measurements.” for “measurements. MTS based cell viability assay was performed using CellTiter 96 Aqueous Cell Proliferation Assay (Promega) according to the manufacturer's instruction.”
# [3] = Toxicity / body weight change in mice; type: in vivo, mouse
# Excerpt: FIG. 20. In vivo anticancer efficacy of BKAc-Puro. […] HCT116 cells were implanted subcutaneously into female nude mice. When the developed tumors reached 200 mm^3, animals were intraperitoneally injected by the indicated dose of the compound or vehicle control (DMSO). Tumor volume was estimated by the equation vol=(a×b^2)/2, where vol, a, and b represent volume, the length of the major axis, and the length of the minor axis, respectively. Arrows indicate the time points of treatment. (b) Body weight change during the treatment in a. Value is expressed in percent change compared to the day of the first treatment.
# FIG. 21. HCT116 cells were implanted subcutaneously into female nude mice. When palpable tumors reached 50-150 mm^3, animals were randomized and treated by the indicated dose of the compound or vehicle control (DMSO) via intraperitoneal injection. Tumor incidence is presented as number of mice developed tumor (volume >300 mm^3) after 2 weeks of daily treatment/number of mice treated. Tumor volume was estimated by the equation vol=(a×b^2)/2, where vol, a, and b represent volume, the length of the major axis, and the length of the minor axis, respectively.
# FIG. 22. Dose escalation toxicity study. Female nude mice (8-10 weeks old) were treated with the indicated dose of BKAc-Puro (7, 20, 67, 200, and 400 mg/kg; n=3 in each treatment group). Body weight change during the treatment is expressed in percent change compared to the day of the first treatment. Arrows indicate the time points of treatment. Data represent mean values±s.d. (n=3).
# FIG. 29. In vivo anticancer efficacy of Boc-KAc-Puro. (a) Tumor growth in HCT116 xenograft model. Animals were treated with acidified saline control or Boc-KAc-Puro (50 or 150 mg/kg). Values are mean±s.d. (n=5 mice per group). *** P<0.001 compared to the control group. P=0.000716 (50 mg/kg), P=0.000349 (150 mg/kg) at 10 d. (b) Body weight change during the treatment in a and was monitored as a sign of general animal health. Values are mean±s.d. (c) Tumor growth in HT29 xenograft model. Animals were treated with acidified saline control or Boc-KAc-Puro (150 mg/kg). Values are mean±s.d. (n=5 mice per group). *** P<0.001 compared to the control group. P=0.000514 (150 mg/kg) at 10 d. (d) Body weight change during the treatment in c was monitored as a sign of general animal health. Values are mean±s.d. (e) Levels of Puro-incorporated proteins were monitored by immunoblotting. Animals bearing HT29 xenograft tumor were given daily intraperitoneal administration of the prodrug at 150 mg/kg/dose for 3 d, followed by preparation of tissue lysates. The lower panel (anti-α-Tubulin) served as a loading control.
structure (smiles),measurement,setting,value
"COc1ccc(CC(NC(=O)C(CCCCNC(C)=O)NC(=O)OC(C)(C)C)C(=O)NC2C(O)[C@H](n3cnc4c(N(C)C)ncnc43)O[C@@H]2CO)cc1 (stereo partly drawn) [BKAc-Puro, N-[3′-(α-Amino-p-methoxyhydrocinnamamido)-3′-deoxy-N,N-dimethyldenosinyl)-N-α-(t-butoxycarbonyl]-N-ε-acetyl-L-lysineamide]",Puro presentation on cell surface proteins,RPMI8226 cells,confirmed
same,Cell death,[1],effectively caused cell death
same,"Cell death (trypan blue exclusion, morphology, PI staining)",[2],massive cell death
same,Cell proliferation (cell number),[2]; 5 d,impaired the proliferation
same,Tolerability judged by weight loss,[3]; 150 mg/kg/dose daily intraperitoneal for 10 d,well-tolerated
same,Toxicity,"[3]; 400 mg/kg, during and after 14 injections, HCT116 xenograft mice",No toxicity was observed
same,Toxicity,"[3]; tumor incidence study groups, daily intraperitoneal treatment",no toxicity was observed
same,"Systemic toxicity, dose escalation","[3]; up to 400 mg/kg, 5 consecutive daily injections, female nude mice",No severe systemic toxicity was observed
